25 molecules from US20240150325A1, “NOVEL COMPOUND AS PROTEIN KINASE INHIBITORS” (LG CHEM, LTD., priority 2021, published 2024) can be followed below.

The target in one test is MET (Homo sapiens, UniProt P08581). Nature of the test: Evaluation of inhibitory activity to MET. It is filed as biochemical. From the text: (§1) Experimental Example 1. Evaluation of Inhibitory Activity to RON and MET
The target of the next test is RON (Homo sapiens, UniProt Q04912). As to the kind of experiment: Evaluation of inhibitory activity to RON. It is filed as biochemical.
Chain of RON (Q04912 25-1400): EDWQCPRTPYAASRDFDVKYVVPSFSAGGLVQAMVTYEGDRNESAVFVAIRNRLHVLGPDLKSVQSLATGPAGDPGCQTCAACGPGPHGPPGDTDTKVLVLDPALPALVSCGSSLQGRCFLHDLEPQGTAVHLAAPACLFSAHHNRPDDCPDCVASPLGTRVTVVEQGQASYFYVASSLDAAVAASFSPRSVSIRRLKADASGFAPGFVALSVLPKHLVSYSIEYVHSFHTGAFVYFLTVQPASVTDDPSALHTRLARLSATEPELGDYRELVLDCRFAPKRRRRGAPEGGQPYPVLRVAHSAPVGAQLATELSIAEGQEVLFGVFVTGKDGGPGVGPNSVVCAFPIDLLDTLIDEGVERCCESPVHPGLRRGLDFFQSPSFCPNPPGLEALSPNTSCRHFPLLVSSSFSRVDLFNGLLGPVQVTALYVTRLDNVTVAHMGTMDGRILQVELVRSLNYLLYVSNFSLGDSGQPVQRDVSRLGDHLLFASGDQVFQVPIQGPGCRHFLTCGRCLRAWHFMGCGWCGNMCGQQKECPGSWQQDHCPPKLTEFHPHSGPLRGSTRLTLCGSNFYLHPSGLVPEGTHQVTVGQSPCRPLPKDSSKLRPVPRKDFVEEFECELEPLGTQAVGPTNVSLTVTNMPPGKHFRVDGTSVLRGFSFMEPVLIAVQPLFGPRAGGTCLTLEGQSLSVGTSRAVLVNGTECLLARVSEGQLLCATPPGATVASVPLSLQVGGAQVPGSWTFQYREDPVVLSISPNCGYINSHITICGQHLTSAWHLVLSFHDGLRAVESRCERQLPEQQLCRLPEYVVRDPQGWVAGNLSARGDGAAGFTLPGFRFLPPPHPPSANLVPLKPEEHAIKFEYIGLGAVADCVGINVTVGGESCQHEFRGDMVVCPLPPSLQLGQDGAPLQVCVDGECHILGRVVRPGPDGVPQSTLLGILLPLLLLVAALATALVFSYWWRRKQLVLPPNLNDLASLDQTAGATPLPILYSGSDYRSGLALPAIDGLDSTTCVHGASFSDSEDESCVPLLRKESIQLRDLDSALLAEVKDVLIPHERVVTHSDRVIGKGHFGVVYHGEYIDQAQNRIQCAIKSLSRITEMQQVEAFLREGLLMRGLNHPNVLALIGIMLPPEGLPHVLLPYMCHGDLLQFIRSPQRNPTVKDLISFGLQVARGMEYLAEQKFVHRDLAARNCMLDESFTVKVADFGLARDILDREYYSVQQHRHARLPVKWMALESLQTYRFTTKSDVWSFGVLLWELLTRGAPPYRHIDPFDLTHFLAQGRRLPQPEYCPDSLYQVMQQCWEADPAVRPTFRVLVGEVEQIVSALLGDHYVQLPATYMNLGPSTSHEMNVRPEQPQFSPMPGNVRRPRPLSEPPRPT
Description: as §1

Chain of MET (P08581 25-1390): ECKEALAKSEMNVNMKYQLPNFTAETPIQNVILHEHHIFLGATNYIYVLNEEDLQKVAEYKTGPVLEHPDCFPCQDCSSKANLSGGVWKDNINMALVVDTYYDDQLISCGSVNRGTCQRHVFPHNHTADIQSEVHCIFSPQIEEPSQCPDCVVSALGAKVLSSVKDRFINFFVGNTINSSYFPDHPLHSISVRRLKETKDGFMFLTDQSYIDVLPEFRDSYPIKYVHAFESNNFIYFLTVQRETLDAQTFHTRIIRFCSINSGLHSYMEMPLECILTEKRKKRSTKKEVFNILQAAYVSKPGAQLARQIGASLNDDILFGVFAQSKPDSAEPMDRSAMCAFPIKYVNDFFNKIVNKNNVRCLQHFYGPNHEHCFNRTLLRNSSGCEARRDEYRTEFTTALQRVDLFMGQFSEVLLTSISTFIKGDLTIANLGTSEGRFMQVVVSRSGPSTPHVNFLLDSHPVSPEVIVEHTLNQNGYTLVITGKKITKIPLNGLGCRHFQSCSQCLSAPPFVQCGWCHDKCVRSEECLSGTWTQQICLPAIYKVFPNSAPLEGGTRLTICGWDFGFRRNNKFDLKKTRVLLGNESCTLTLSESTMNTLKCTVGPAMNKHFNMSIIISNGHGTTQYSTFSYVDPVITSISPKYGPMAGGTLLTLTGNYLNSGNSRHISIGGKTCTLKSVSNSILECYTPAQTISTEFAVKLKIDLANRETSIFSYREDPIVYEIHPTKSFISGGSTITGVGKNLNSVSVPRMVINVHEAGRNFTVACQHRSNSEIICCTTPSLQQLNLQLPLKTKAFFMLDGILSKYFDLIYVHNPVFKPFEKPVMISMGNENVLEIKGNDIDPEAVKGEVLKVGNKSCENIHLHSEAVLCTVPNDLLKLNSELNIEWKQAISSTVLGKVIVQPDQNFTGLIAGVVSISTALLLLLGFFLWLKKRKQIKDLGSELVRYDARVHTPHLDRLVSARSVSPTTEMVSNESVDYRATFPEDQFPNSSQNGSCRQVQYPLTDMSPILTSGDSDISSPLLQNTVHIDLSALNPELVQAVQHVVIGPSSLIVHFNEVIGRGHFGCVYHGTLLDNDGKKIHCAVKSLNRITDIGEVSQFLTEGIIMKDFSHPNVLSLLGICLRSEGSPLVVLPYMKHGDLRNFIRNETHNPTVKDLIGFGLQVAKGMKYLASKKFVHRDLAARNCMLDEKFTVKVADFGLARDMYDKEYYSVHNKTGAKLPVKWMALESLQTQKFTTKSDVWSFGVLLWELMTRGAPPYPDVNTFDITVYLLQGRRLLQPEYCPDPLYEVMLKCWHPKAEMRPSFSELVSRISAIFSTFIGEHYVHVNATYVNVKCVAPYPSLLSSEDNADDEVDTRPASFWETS

As a reminder, the IC50 is the concentration that gives 50% inhibition. A higher IC50 goes with weaker potency. As to `Cc1ccc(C(=O)Nc2ccc(Oc3ccc(O)c(-c4ccnc(N)n4)c3)c(F)c2)c(=O)n1-c1ccc(F)cc1` [Example 40, N-(4-(3-(2-aminopyrimidin-4-yl)-4-hydroxyphenoxy)-3-fluorophenyl)-1-(4-fluorophenyl)-6-methyl-2-oxo-1,2-dihydropyridin-3-carboxamide], the IC50 against MET worked out at 4 nM.

As for `Cc1ccc(C(=O)Nc2ccc(Oc3ccc(O)c(-c4cc[nH]n4)c3)c(F)c2)c(=O)n1-c1ccc(F)cc1` [Example 58, N-(3-Fluoro-4-(4-hydroxy-3-(1H-pyrazol-3-yl)phenoxy)phenyl)-1-(4-fluorophenyl)-6-methyl-2-oxo-1,2-dihydropyridin-3-carboxamide], the half-maximal inhibitory concentration (IC50) on RON was found to be 1450 nM; against MET it was 99 nM.

For `Cc1c(C(=O)Nc2ccc(Oc3ccc(O)c(-c4ccnc(N)n4)c3)c(F)c2)c(=O)n(-c2ccccc2)n1C` [Example 43, N-(4-(3-(2-aminopyrimidin-4-yl)-4-hydroxyphenoxy)-3-fluorophenyl)-1,5-dimethyl-3-oxo-2-phenyl-2,3-dihydro-1H-pyrazol-4-carboxamide], the IC50 at RON came to 279 nM; against MET, 48 nM.

In the case of `CCOc1ccn(-c2ccc(F)cc2)c(=O)c1C(=O)Nc1ccc(Oc2ccc(O)c(-c3ccnc(N)n3)c2)c(F)c1` [Example 39, N-(4-(3-(2-aminopyrimidin-4-yl)-4-hydroxyphenoxy)-3-fluorophenyl)-4-ethoxy-1-(4-fluorophenyl)-2-oxo-1,2-dihydropyridin-3-carboxamide], the IC50 on RON came out at 86 nM; at MET, 27 nM.

Consider `CC(=O)c1cc(Oc2ccc(NC(=O)c3ccc(C)n(-c4ccc(F)cc4)c3=O)cc2F)ccc1O` [Example 37, N-(4-(3-acetyl-4-hydroxyphenoxy)-3-fluorophenyl)-1-(4-fluorophenyl)-6-methyl-2-oxo-1,2-dihydropyridin-3-carboxamide], for which half-maximal inhibition at MET (IC50) required 954 nM.

For the molecule `Nc1nccc(-c2cc(Oc3ccc(NC(=O)c4cc(C5CC5)cn(-c5ccc(F)cc5)c4=O)cc3F)ccc2O)n1` [Example 48, N-(4-(3-(2-aminopyrimidin-4-yl)-4-hydroxyphenoxy)-3-fluorophenyl)-5-cyclopropyl-1-(4-fluorophenyl)-2-oxo-1,2-dihydropyridin-3-carboxamide], the half-inhibitory concentration (IC50) was 23 nM against RON and 64 nM against MET.

As to `Cc1ccc(C(=O)Nc2ccc(Nc3ccc(O)c(-c4ccnc(N)n4)c3)c(F)c2)c(=O)n1-c1ccc(F)cc1` [Example 30, N-(4-((3-(2-aminopyrimidin-4-yl)-4-hydroxyphenyl)amino)-3-fluorophenyl)-1-(4-fluorophenyl)-6-methyl-2-oxo-1,2-dihydropyridin-3-carboxamide], the IC50 was determined as 248 nM against RON and 49 nM against MET.

On to `Nc1nccc(-c2cc(Oc3ccc(NC(=O)c4ccc(C(F)(F)F)n(-c5ccc(F)cc5)c4=O)cc3F)ccc2O)n1` [Example 49, N-(4-(3-(2-aminopyrimidin-4-yl)-4-hydroxyphenoxy)-3-fluorophenyl)-1-(4-fluorophenyl)-2-oxo-6-(trifluoromethyl)-1,2-dihydropyridin-3-carboxamide], for which the half-inhibitory concentration (IC50) stood at 163 nM on RON and 67 nM against MET.

Consider `Cc1c(C(=O)Nc2ccc(Oc3ccc(O)c(-c4ccnc(N)n4)c3)c(F)c2)c(=O)n(-c2ccccc2)n1CC(C)(C)O` [Example 52, N-(4-(3-(2-aminopyrimidin-4-yl)-4-hydroxyphenoxy)-3-fluorophenyl)-1-(2-hydroxy-2-methylpropyl)-5-methyl-3-oxo-2-phenyl-2,3-dihydro-1H-pyrazol-4-carboxamide], for which the IC50 amounted to 876 nM at RON and 115 nM against MET.

Turning to `Cn1cc(-c2cc(C(=O)Nc3ccc(Oc4ccc(O)c(-c5ccnc(N)n5)c4)c(F)c3)c(=O)n(-c3ccc(F)cc3)c2)cn1` [Example 47, N-(4-(3-(2-aminopyrimidin-4-yl)-4-hydroxyphenoxy)-3-fluorophenyl)-1-(4-fluorophenyl)-5-(1-methyl-1H-pyrazol-4-yl)-2-oxo-1,2-dihydropyridin-3-carboxamide], the values for the IC50 against RON and against MET were 882 nM and 179 nM, respectively.

Consider `O=C(Nc1ccc(F)cc1)C1(C(=O)Nc2ccc(Oc3ccc(O)c(-c4ccncn4)c3)c(F)c2)CC1` [Example 56, N-(3-fluoro-4-(4-hydroxy-3-(pyrimidin-4-yl)phenoxy)phenyl)-N-(4-fluorophenyl)cyclopropan-1,1-dicarboxamide], for which the results for the IC50 on RON and against MET were 3350 nM and 281 nM, respectively.

As to `Nc1nccc(-c2cc(-c3ccc(NC(=O)c4cc(C5CC5)cn(-c5ccc(F)cc5)c4=O)cc3F)ccc2O)n1` [Example 8], the IC50 on RON was found to be 834 nM; against MET, 2090 nM.

Turning to `CCOc1ccn(-c2ccc(F)cc2)c(=O)c1C(=O)Nc1ccc(Oc2ccc(O)c(-c3ccncn3)c2)c(F)c1` [Example 54, 4-Ethoxy-N-(3-fluoro-4-(4-hydroxy-3-(pyrimidin-4-yl)phenoxy)phenyl)-1-(4-fluorophenyl)-2-oxo-1,2-dihydropyridin-3-carboxamide], the IC50 on RON was found to be 351 nM; against MET, 67 nM.

In the case of `CCOc1ccn(-c2ccc(F)cc2)c(=O)c1C(=O)Nc1ccc(-c2ccc(O)c(-c3ccnc(N)n3)c2)c(C)c1` [Example 13, N-(3′-(2-aminopyrimidin-4-yl)-4′-hydroxy-2-methyl-[1,1′-biphenyl]-4-yl)-4-ethoxy-1-(4-fluorophenyl)-2-oxo-1,2-dihydropyridin-3-carboxamide], the half-inhibitory concentration (IC50) at RON stood at 1330 nM; against MET it was 2940 nM.

Consider `Nc1nccc(-c2cc(Oc3ccc(NC(=O)c4ccc(CO)n(-c5ccc(F)cc5)c4=O)cc3F)ccc2O)n1` [Example 50, N-(4-(3-(2-aminopyrimidin-4-yl)-4-hydroxyphenoxy)-3-fluorophenyl)-1-(4-fluorophenyl)-6-(hydroxymethyl)-2-oxo-1,2-dihydropyridin-3-carboxamide], for which the values for the IC50 against RON and at MET were 133 nM and 12 nM, respectively.

`C/C(=N\O)c1cc(Oc2ccc(NC(=O)c3ccc(C)n(-c4ccc(F)cc4)c3=O)cc2F)ccc1O` [Example 38, (E)-N-(3-fluoro-4-(4-hydroxy-3-(1-(hydroxyimino)ethyl)phenoxy)phenyl)-1-(4-fluorophenyl)-6-methyl-2-oxo-1,2-dihydropyridin-3-carboxamide] registered an IC50 against MET of 354 nM.

For the molecule `CCOc1ccn(-c2ccc(F)cc2)c(=O)c1C(=O)Nc1ccc(Nc2ccc(O)c(-c3ccnc(N)n3)c2)cc1F` [Example 34, N-(4-((3-(2-aminopyrimidin-4-yl)-4-hydroxyphenyl)amino)-2-fluorophenyl)-4-ethoxy-1-(4-fluorophenyl)-2-oxo-1,2-dihydropyridin-3-carboxamide], the IC50 was 2280 nM against RON and 552 nM on MET.

For `CCOc1ccn(-c2ccc(F)cc2)c(=O)c1C(=O)Nc1ccc(Nc2ccc(O)c(-c3ccnc(N)n3)c2)c(F)c1` [Example 28, N-(4-((3-(2-aminopyrimidin-4-yl)-4-hydroxyphenyl)amino)-3-fluorophenyl)-4-ethoxy-1-(4-fluorophenyl)-2-oxo-1,2-dihydropyridin-3-carboxamide], the IC50 on RON was determined as 1170 nM; at MET, 180 nM.

Take `Nc1nccc(-c2cc(Oc3ccc(NC(=O)c4cc(Br)cn(-c5ccc(F)cc5)c4=O)cc3F)ccc2O)n1` [Example 44, N-(4-(3-(2-aminopyrimidin-4-yl)-4-hydroxyphenoxy)-3-fluorophenyl)-5-bromo-1-(4-fluorophenyl)-2-oxo-1,2-dihydropyridin-3-carboxamide]: the IC50 against RON is 137 nM; at MET, 46 nM.

As to `CCOc1ccn(-c2ccc(F)cc2)c(=O)c1C(=O)Nc1ccc(-c2ccc(O)c(-c3ccnc(N)n3)c2)c(F)c1` [Example 1, N-(3′-(2-aminopyrimidin-4-yl)-2-fluoro-4′-hydroxy-[1,1′-biphenyl]-4-yl)-4-ethoxy-1-(4-fluorophenyl)-2-oxo-1,2-dihydropyridin-3-carboxamide], the IC50 against RON is 144 nM; against MET, 612 nM.

Regarding `Nc1nccc(-c2cc(Oc3ccc(NC(=O)C4(C(=O)Nc5ccc(F)cc5)CC4)cc3F)ccc2O)n1` [Example 41, N-(4-(3-(2-aminopyrimidin-4-yl)-4-hydroxyphenoxy)-3-fluorophenyl)-N-(4-fluorophenyl)cyclopropan-1,1-dicarboxamide], the figures for the IC50 on RON and at MET were 362 nM and 71 nM, respectively.

As for `Cn1cc(-c2cc(C(=O)Nc3ccc(-c4ccc(O)c(-c5ccnc(N)n5)c4)c(F)c3)c(=O)n(-c3ccc(F)cc3)c2)cn1` [Example 7, N-(3′-(2-aminopyrimidin-4-yl)-2-fluoro-4′-hydroxy-[1,1′-biphenyl]-4-yl)-1-(4-fluorophenyl)-5-(1-methyl-1H-pyrazol-4-yl)-2-oxo-1,2-dihydropyridin-3-carboxamide], the IC50 against RON amounted to 942 nM; against MET, 2230 nM.

`COc1ccn(-c2ccc(F)cc2)c(=O)c1C(=O)Nc1ccc(-c2ccc(O)c(-c3ccnc(N)n3)c2)c(F)c1` [Example 2, N-(3′-(2-aminopyrimidin-4-yl)-2-fluoro-4′-hydroxy-[1,1′-biphenyl]-4-yl)-1-(4-fluorophenyl)-4-methoxy-2-oxo-1,2-dihydropyridin-3-carboxamide]: the IC50 on RON was found to be 131 nM; at MET it was 583 nM.

Consider `Nc1nccc(-c2cc(Oc3ccc(NC(=O)c4cccn(-c5ccc(F)cc5)c4=O)cc3F)ccc2O)n1` [Example 46, N-(4-(3-(2-aminopyrimidin-4-yl)-4-hydroxyphenoxy)-3-fluorophenyl)-1-(4-fluorophenyl)-2-oxo-1,2-dihydropyridin-3-carboxamide], for which the figures for the IC50 against RON and against MET were 241 nM and 54 nM, respectively.

In the case of `CCOc1ccn(-c2ccc(F)cc2)c(=O)c1C(=O)Nc1ccc(Oc2ccc(O)c(-c3cc[nH]n3)c2)c(F)c1` [Example 57, 4-Ethoxy-N-(3-fluoro-4-(4-hydroxy-3-(1H-pyrazol-3-yl)phenoxy)phenyl)-1-(4-fluorophenyl)-2-oxo-1,2-dihydropyridin-3-carboxamide], the values for the IC50 against RON and against MET were 4480 nM and 160 nM, respectively.
